From patent US6211439A, “Herbicide resistance in plants” (MGI Pharma, Inc, priority 1995, dated 2001)
Like-named read-outs stand apart in the source and are kept apart here.

System: Black Mexican Sweet Corn tissue
Assay: Free amino acid levels in Black Mexican Sweet Corn suspension cultures
Format: cell-based, maize
Conditions: for activity at 10 µM / fold induction at 10 µM: Zea mays; for activity at 10 µM: After 48 hours of herbicide exposure; for fold induction at 10 µM: over a period of 48 hours, vs control cultures
Protocol: Suspension culture cells were treated for 3.5 hours or 48 hours with 1×10^-5 M 997. Cells were removed from suspension by filtration and 1 gram fresh weight quantities were ground with sand with a mortar and pestle in 1 ml 5% TCA. Four ml of 5% TCA were added and the extract centrifuged at 10,000×g for 10 minutes. The pellet was reextracted and the supernatants combined and subjected to cation exchange chromatography. The samples were applied to Bond Elut SCX columns (Analytichem International Inc., Harbor City, Calif.) which had been equilibrated with 5% TCA. Following sample application, the columns were washed with 5 ml distilled, deionized water, and the amino acids were eluted with 2 ml aliquots of 5% v/v triethylamine. The aliquots were combined (6 ml), lyophilized, and subjected to amino acid analysis with a Kontron Liquemat III amino acid analyzer (Hesber, Middlesex TW5 OQU, England).

[1] = 1 × 10^-5 M 997, 3.5 hr., Estimated

SMILES: CC(C)C1(C)NC(c2ncccc2C(=O)O)=NC1=O (stereo not drawn) [compound 997, 2-(5-isopropyl-5-methyl-4-oxo-2-imidazolin-2-yl)nicotinic acid]
- Free asp level (1 × 10^-5 M 997, 3.5 hr.): 175 nmol per g fresh weight tissue
- Free cystine (Oxidized cysteine) level (1 × 10^-5 M 997, 3.5 hr.): 103 nmol per g fresh weight tissue
- Free glu level (1 × 10^-5 M 997, 3.5 hr.): 360 nmol per g fresh weight tissue
- Free gly level (1 × 10^-5 M 997, 3.5 hr.): 98 nmol per g fresh weight tissue
- Free his level (1 × 10^-5 M 997, 3.5 hr.): 184 nmol per g fresh weight tissue
- Free ile level (1 × 10^-5 M 997, 3.5 hr.): 120 nmol per g fresh weight tissue
- Free leu level (1 × 10^-5 M 997, 3.5 hr.): 120 nmol per g fresh weight tissue
- Free lys level (1 × 10^-5 M 997, 3.5 hr.): 212 nmol per g fresh weight tissue
- Free met level (1 × 10^-5 M 997, 3.5 hr.): 100 nmol per g fresh weight tissue
- Free phe level (1 × 10^-5 M 997, 3.5 hr.): 151 nmol per g fresh weight tissue
- Free ser level (1 × 10^-5 M 997, 3.5 hr.): 540 nmol per g fresh weight tissue
- Free thr level (1 × 10^-5 M 997, 3.5 hr.): 89 nmol per g fresh weight tissue
- Free tyr level (1 × 10^-5 M 997, 3.5 hr.): 112 nmol per g fresh weight tissue
- Free val level (1 × 10^-5 M 997, 3.5 hr.): 355 nmol per g fresh weight tissue
- Free ala level [1]: 600 nmol per g fresh weight tissue
- Free arg level [1]: 60 nmol per g fresh weight tissue
- Free trp level [1]: 30 nmol per g fresh weight tissue
- Free ala level (1 × 10^-5 M 997, 48 hr.): 455 nmol per g fresh weight tissue
- Free arg level (1 × 10^-5 M 997, 48 hr.): 55 nmol per g fresh weight tissue
- Free asp level (1 × 10^-5 M 997, 48 hr.): 100 nmol per g fresh weight tissue
- Free cystine (Oxidized cysteine) level (1 × 10^-5 M 997, 48 hr.): 435 nmol per g fresh weight tissue
- Free glu level (1 × 10^-5 M 997, 48 hr.): 175 nmol per g fresh weight tissue
- Free gly level (1 × 10^-5 M 997, 48 hr.): 60 nmol per g fresh weight tissue
- Free his level (1 × 10^-5 M 997, 48 hr.): 310 nmol per g fresh weight tissue
- Free ile level (1 × 10^-5 M 997, 48 hr.): 38 nmol per g fresh weight tissue
- Free leu level (1 × 10^-5 M 997, 48 hr.): 16 nmol per g fresh weight tissue
- Free lys level (1 × 10^-5 M 997, 48 hr.): 240 nmol per g fresh weight tissue
- Free met level (1 × 10^-5 M 997, 48 hr.): 405 nmol per g fresh weight tissue
- Free phe level (1 × 10^-5 M 997, 48 hr.): 195 nmol per g fresh weight tissue
- Free ser level (1 × 10^-5 M 997, 48 hr.): 1160 nmol per g fresh weight tissue
- Free trp level (1 × 10^-5 M 997, 48 hr.): 30 nmol per g fresh weight tissue
- Free tyr level (1 × 10^-5 M 997, 48 hr.): 130 nmol per g fresh weight tissue
- Free val level (1 × 10^-5 M 997, 48 hr.): 48 nmol per g fresh weight tissue
- activity at 10 µM (read-out: free isoleucine level relative to untreated cell cultures): 31%
- activity at 10 µM (read-out: free leucine level relative to untreated cell cultures): 8%
- activity at 10 µM (read-out: free valine level relative to untreated cell cultures): 12%
- fold induction at 10 µM (read-out: increase of free cysteine during herbicide exposure): 24
- fold induction at 10 µM (read-out: increase of free methionine during herbicide exposure): 8
- fold induction at 10 µM (read-out: increase of free serine during herbicide exposure): 3
